Results from PMC10916402, “Meropenem-ANT3310, a unique β-lactam-β-lactamase inhibitor combination with expanded antibacterial spectrum against Gram-negative pathogens including carbapenem-resistant Acinetobacter baumannii” (Antimicrobial Agents and Chemotherapy, 2024).
Like-named read-outs stand apart in the source and are kept apart here.

Assays:
[1] = system: A. baumannii clinical isolates; assay: Broth microdilution MIC, A. baumannii clinical isolates; format: cell-based, Acinetobacter baumannii; settings: for CLSI % Res / CLSI % Sus: CLSI BP; for CLSI % Res: for MEM-ANT3310 % at ≥16 µg/mL; for CLSI % Sus: for MEM-ANT3310 % inhibited at ≤8 µg/mL; for EUCAST % Res / EUCAST % Sus: EUCAST BP
How it was run: (§1)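 Broth microdilution per CLSI and EUCAST in cation-adjusted Mueller Hinton broth, iron-depleted for cefiderocol; ANT3310 panels prepared fresh on test day. Isolates collected 2018–2019, identity confirmed by MALDI-TOF. MIC taken as first well without visible growth, interpreted with 2023 CLSI and EUCAST breakpoints.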

[2] = system: carbapenem-resistant Acinetobacter baumannii (CRAB) clinical isolates; assay: Broth microdilution MIC, CRAB isolates; format: cell-based; settings: 2018 Global collection, N 363
How it was run: as §1

[3] = 2018 Global collection, All A. baumannii, N 500
[4] = 2019 Global collection, All A. baumannii, N 405

C[C@@H](O)[C@H]1C(=O)N2C(C(=O)O)=C(S[C@@H]3CN[C@H](C(=O)N(C)C)C3)[C@H](C)[C@H]12 [MEM, meropenem]
% of isolates resistant to MEM (CLSI, MIC ≥8 µg/mL) ([1]; 905 A. baumannii isolates, overall): 78% | MIC50 [1, 3]: >32 µg/mL | MIC90 [1, 3]: >32 µg/mL | Number of isolates inhibited at MIC of 0.25 µg/mL [1, 3]: 52 | Number of isolates inhibited at MIC of 0.5 µg/mL [1, 3]: 42 | Number of isolates inhibited at MIC of 1 µg/mL [1, 3]: 21 | Number of isolates inhibited at MIC of 2 µg/mL [1, 3]: 9 | Number of isolates inhibited at MIC of 4 µg/mL [1, 3]: 6 | Number of isolates inhibited at MIC of 8 µg/mL [1, 3]: 5 | Number of isolates inhibited at MIC of 16 µg/mL [1, 3]: 16 | Number of isolates inhibited at MIC of 32 µg/mL [1, 3]: 64 | Number of isolates inhibited at MIC of >32 µg/mL [1, 3]: 278 | Number of isolates inhibited at MIC of ≤0.125 µg/mL [1, 3]: 7 | CLSI % Res [1, 3]: 72.6% | CLSI % Sus [1, 3]: 26.2% | EUCAST % Res [1, 3]: 71.6% | EUCAST % Sus [1, 3]: 26.2% | MIC50 [1, 4]: >32 µg/mL | Number of isolates inhibited at MIC of 0.25 µg/mL [1, 4]: 31 | Number of isolates inhibited at MIC of 0.5 µg/mL [1, 4]: 18 | Number of isolates inhibited at MIC of 1 µg/mL [1, 4]: 1 | Number of isolates inhibited at MIC of 2 µg/mL [1, 4]: 5 | Number of isolates inhibited at MIC of 4 µg/mL [1, 4]: 3 | Number of isolates inhibited at MIC of 8 µg/mL [1, 4]: 9 | Number of isolates inhibited at MIC of 16 µg/mL [1, 4]: 12 | Number of isolates inhibited at MIC of 32 µg/mL [1, 4]: 66 | Number of isolates inhibited at MIC of >32 µg/mL [1, 4]: 253 | Number of isolates inhibited at MIC of ≤0.125 µg/mL [1, 4]: 7 | CLSI % Res [1, 4]: 83.9% | CLSI % Sus [1, 4]: 15.3% | EUCAST % Res [1, 4]: 81.7% | EUCAST % Sus [1, 4]: 15.3% | MEM-resistance rate ([1]; A. baumannii isolates from Asia/Pacific): 74% | MEM-resistance rate ([1]; A. baumannii isolates from Middle East): 91% | MEM-resistance rate ([1]; A. baumannii isolates from North America): 40% | MIC90 ([1]; Acinetobacter baumannii, 2018 Global collection, All A. baumannii, N 500, read-out: MIC90): > 32 µg/mL | MIC90 ([1]; Acinetobacter baumannii, 2019 Global collection, All A. baumannii, N 405, read-out: MIC90): > 32 µg/mL | MIC90 ([1]; Acinetobacter baumannii, A. baumannii, one or both of the 2018/2019 collections, read-out: MIC90): ≥ 32 µg/mL | MIC50 ([1]; Acinetobacter baumannii, combined A. baumannii 2018–2019 collection (n = 905), ANT3310 at 8 µg/mL, read-out: MIC50): > 32 µg/mL | MIC90 ([1]; Acinetobacter baumannii, combined A. baumannii 2018–2019 collection (n = 905), ANT3310 at 8 µg/mL, read-out: MIC90): > 32 µg/mL | MIC50 ([2]; CRAB (MEM MICs >4 µg/mL)): >32 µg/mL | Number of isolates inhibited at MIC of 8 µg/mL ([2]; CRAB (MEM MICs >4 µg/mL)): 5 | Number of isolates inhibited at MIC of 16 µg/mL ([2]; CRAB (MEM MICs >4 µg/mL)): 16 | Number of isolates inhibited at MIC of 32 µg/mL ([2]; CRAB (MEM MICs >4 µg/mL)): 64 | Number of isolates inhibited at MIC of >32 µg/mL ([2]; CRAB (MEM MICs >4 µg/mL)): 278 | CLSI % Res ([2]; CRAB, CLSI BP, for MEM-ANT3310 % at ≥16 µg/mL): 100%
